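Tested at 5 concentrations; 48 h exposure; 96-well plates; endpoints linearly interpolated, else capped at highest concentration. Here, GI50 denotes the concentration required for 50% inhibition of growth.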 Active and inactive are the calls of the source. No stated cut-off is given here; in the data, active = GI50 up to about 1.1 µM and inactive = higher.
What was measured:
Test in all cases: NCI anticancer screen, dose series, 48 h
[1] = tested on: 786-0
[2] = tested on: UACC-257
[3] = tested on: HCC 2998
[4] = tested on: SF-268
[5] = tested on: TK-10
[6] = tested on: K562
[7] = tested on: HT-29
[8] = tested on: HCT-15
[9] = tested on: SK-MEL-28
[10] = tested on: M19-MEL
[11] = tested on: EKVX
[12] = tested on: SK-MEL-5
[13] = tested on: RPMI-8226
[14] = tested on: U-251
[15] = tested on: NCI-H226
[16] = tested on: OVCAR-3
[17] = tested on: BT-549
[18] = tested on: MDA-MB-435
[19] = tested on: T47D
[20] = tested on: NCI/ADR-RES

| Compound | GI50 [1] | GI50 [2] | GI50 [3] | GI50 [4] | GI50 [5] | GI50 [6] | GI50 [7] | GI50 [8] [µM] | GI50 [9] | GI50 [10] | GI50 [11] | GI50 [12] | GI50 [13] | GI50 [14] | GI50 [15] | GI50 [16] | GI50 [17] | GI50 [18] | GI50 [19] | GI50 [20] |
| --- | --- | --- | --- | --- | --- | --- | --- | --- | --- | --- | --- | --- | --- | --- | --- | --- | --- | --- | --- | --- |
| CSc1ccc(Cc2cc(C(C)(C)C)cc(C(C)(C)C)c2O)cc1 | 16.7 µM (inactive) | 14.7 µM (inactive) | 18.5 µM (inactive) | 15.8 µM (inactive) | 12.9 µM (inactive) | 12 µM (inactive) | 13.8 µM (inactive) | 14 | 16.5 µM (inactive) | 16.8 µM (inactive) | 18.2 µM (inactive) | 15.6 µM (inactive) | 4.45 µM (inactive) | 14.8 µM (inactive) | – | – | – | – | – | – |
| COC(=O)/C(=N\Nc1nnc(C)n1N)C(C#N)c1ccc(Cl)cc1 (stereo not drawn) | 34.7 µM (inactive) | > 100 µM (inactive) | > 100 µM (inactive) | > 100 µM (inactive) | > 100 µM (inactive) | – | > 100 µM (inactive) | > 100 | > 100 µM (inactive) | > 100 µM (inactive) | > 100 µM (inactive) | – | > 100 µM (inactive) | > 100 µM (inactive) | > 100 µM (inactive) | > 100 µM (inactive) | – | – | – | – |
| Cc1ccc(S(=O)(=O)N/N=C(\CCN2CCCC2)CC(c2ccccc2)c2c(O)c3ccccc3oc2=O)cc1 (stereo not drawn) | > 100 µM (inactive) | > 100 µM (inactive) | – | > 100 µM (inactive) | > 100 µM (inactive) | 88.9 µM (inactive) | > 100 µM (inactive) | > 100 | – | > 100 µM (inactive) | > 100 µM (inactive) | > 100 µM (inactive) | > 100 µM (inactive) | > 100 µM (inactive) | > 100 µM (inactive) | > 100 µM (inactive) | – | – | – | – |
| CC(C)(C)C1=Cc2cc3cc(C(C)(C)C)[nH]c(=O)c3cc2S(=O)(=O)N1 | 26.2 µM (inactive) | 25.1 µM (inactive) | – | 26.1 µM (inactive) | 29.6 µM (inactive) | 45.4 µM (inactive) | 22.9 µM (inactive) | – | 31.3 µM (inactive) | 19.7 µM (inactive) | 17.3 µM (inactive) | – | 30.3 µM (inactive) | 18 µM (inactive) | 19.9 µM (inactive) | 19 µM (inactive) | – | – | – | – |
| O=C(N/N=C/c1cc(Br)ccc1O)N/N=C/c1cc(Br)ccc1O | 4.93 µM (inactive) | 4.3 µM (inactive) | – | 5.75 µM (inactive) | 54.6 µM (inactive) | 0.377 µM (active) | 5.97 µM (inactive) | – | > 100 µM (inactive) | > 100 µM (inactive) | 4.93 µM (inactive) | 2.49 µM (inactive) | – | 3.55 µM (inactive) | 2.02 µM (inactive) | – | – | – | – | – |
| COc1ccc(C(C#N)Cc2cc(OC)c(OC)c(OC)c2)cc1 (stereo not drawn) | 44.1 µM (inactive) | 50.5 µM (inactive) | – | 49.2 µM (inactive) | 37.6 µM (inactive) | 4.99 µM (inactive) | 33 µM (inactive) | 17.8 | 54.8 µM (inactive) | 29.9 µM (inactive) | 40.7 µM (inactive) | 17.6 µM (inactive) | 23.4 µM (inactive) | 29.6 µM (inactive) | 94.2 µM (inactive) | 31.4 µM (inactive) | – | – | – | – |
| c1ccc(Nc2nnc(Cn3ccc4ccccc43)s2)cc1 | 52.7 µM (inactive) | > 100 µM (inactive) | > 100 µM (inactive) | 56.8 µM (inactive) | 76.6 µM (inactive) | 31.2 µM (inactive) | 57 µM (inactive) | 38.5 | 80.5 µM (inactive) | – | 50.8 µM (inactive) | 57.4 µM (inactive) | 48.5 µM (inactive) | 42.4 µM (inactive) | 58.3 µM (inactive) | 24.5 µM (inactive) | > 100 µM (inactive) | 83.2 µM (inactive) | 27.7 µM (inactive) | 34.6 µM (inactive) |
| COc1ccc2nc(N/N=C/C(C)=N/Nc3cc(C)c4cc(OC)ccc4n3)cc(C)c2c1 | 14 µM (inactive) | 58.5 µM (inactive) | 20.1 µM (inactive) | 25.6 µM (inactive) | 30.5 µM (inactive) | 3.9 µM (inactive) | 12.7 µM (inactive) | 9.75 | 35.2 µM (inactive) | – | 19.2 µM (inactive) | 26.5 µM (inactive) | 7.33 µM (inactive) | 16.2 µM (inactive) | 45.6 µM (inactive) | 26.5 µM (inactive) | 74.3 µM (inactive) | 29 µM (inactive) | 29.8 µM (inactive) | 22 µM (inactive) |
| Cc1nn(-c2ccccc2)c2nc3c(c(C)nn3-c3ccccc3)c(-c3ccccc3Br)c12 | > 100 µM (inactive) | > 100 µM (inactive) | > 100 µM (inactive) | > 100 µM (inactive) | > 100 µM (inactive) | > 100 µM (inactive) | > 100 µM (inactive) | > 100 | > 100 µM (inactive) | – | > 100 µM (inactive) | > 100 µM (inactive) | > 100 µM (inactive) | > 100 µM (inactive) | > 100 µM (inactive) | > 100 µM (inactive) | > 100 µM (inactive) | > 100 µM (inactive) | > 100 µM (inactive) | > 100 µM (inactive) |
| CN1OC(CO)CC12C1CC3CC(C1)CC2C3 (stereo not drawn) | > 100 µM (inactive) | – | > 100 µM (inactive) | > 100 µM (inactive) | > 100 µM (inactive) | > 100 µM (inactive) | > 100 µM (inactive) | > 100 | > 100 µM (inactive) | > 100 µM (inactive) | – | > 100 µM (inactive) | > 100 µM (inactive) | > 100 µM (inactive) | – | > 100 µM (inactive) | – | – | – | – |
| C=CCN1C(=O)C/C(=C2/CCC(=O)N2CC=C)C1=O | > 100 µM (inactive) | > 100 µM (inactive) | > 100 µM (inactive) | > 100 µM (inactive) | > 100 µM (inactive) | > 100 µM (inactive) | > 100 µM (inactive) | > 100 | > 100 µM (inactive) | > 100 µM (inactive) | > 100 µM (inactive) | > 100 µM (inactive) | – | > 100 µM (inactive) | > 100 µM (inactive) | > 100 µM (inactive) | – | – | – | – |
| O=C(/C=C/c1ccc(-c2ccccc2)cc1)c1ccccc1 | 22.8 µM (inactive) | 32.4 µM (inactive) | 18.2 µM (inactive) | 24.8 µM (inactive) | 22.1 µM (inactive) | 27.7 µM (inactive) | 21.9 µM (inactive) | 17.7 | 25.8 µM (inactive) | 24 µM (inactive) | 23.3 µM (inactive) | 19.7 µM (inactive) | 19.5 µM (inactive) | 22.9 µM (inactive) | 22.1 µM (inactive) | – | – | – | – | – |
| CCCCCCCCCCCC(=O)OCC1OC(n2cc(F)c(=O)[nH]c2=O)C(NC(=O)OCc2ccccc2)C(O)C1O (stereo not drawn) | 24 µM (inactive) | 23.4 µM (inactive) | 18.4 µM (inactive) | 39.5 µM (inactive) | 38.8 µM (inactive) | 21.7 µM (inactive) | 16.1 µM (inactive) | 19.7 | 19.1 µM (inactive) | 20 µM (inactive) | 30.5 µM (inactive) | 20.3 µM (inactive) | 19.4 µM (inactive) | 19 µM (inactive) | – | 25 µM (inactive) | – | – | – | – |
| COC(=O)/C=C/c1ccc2c(c1)[C@H](C(=O)OC)[C@@H](c1ccc(O)cc1)O2 | 30 µM (inactive) | 32.5 µM (inactive) | 10.9 µM (inactive) | 30.3 µM (inactive) | 41.4 µM (inactive) | 4.06 µM (inactive) | 27.9 µM (inactive) | 5.02 | 23.1 µM (inactive) | – | 40 µM (inactive) | 14.2 µM (inactive) | > 10 µM (inactive) | 21.9 µM (inactive) | 55.8 µM (inactive) | 8.91 µM (inactive) | 16.8 µM (inactive) | 3.32 µM (inactive) | 28.1 µM (inactive) | 32.3 µM (inactive) |
| Cc1cc(CNC(=O)OCc2ccccc2)c(C)c2c1Oc1ccccc1O2 | 15 µM (inactive) | > 100 µM (inactive) | > 100 µM (inactive) | 20.7 µM (inactive) | 41.8 µM (inactive) | > 100 µM (inactive) | 20.2 µM (inactive) | 97.5 | > 100 µM (inactive) | – | 42.9 µM (inactive) | > 100 µM (inactive) | > 100 µM (inactive) | 18.8 µM (inactive) | 26.5 µM (inactive) | 57.8 µM (inactive) | 62.8 µM (inactive) | > 100 µM (inactive) | 25.8 µM (inactive) | 19 µM (inactive) |
| O=c1n(-c2ccc(Cl)c(Cl)c2)c(=O)n(-c2ccc(Cl)c(Cl)c2)c(=O)n1-c1ccc(Cl)c(Cl)c1 | 2.78 µM (inactive) | 0.736 µM (active) | 2.2 µM (inactive) | 2.45 µM (inactive) | 5.53 µM (inactive) | 2.06 µM (inactive) | 2.59 µM (inactive) | 1.58 | 4.16 µM (inactive) | – | 3.5 µM (inactive) | 1.9 µM (inactive) | 0.558 µM (active) | 3.71 µM (inactive) | 2.82 µM (inactive) | 2.99 µM (inactive) | 2.88 µM (inactive) | 3.93 µM (inactive) | 1.57 µM (inactive) | 3.1 µM (inactive) |
| COc1cc(CSc2ccc(O)cc2)cc(O)c1O | 36.2 µM (inactive) | 34 µM (inactive) | 29.2 µM (inactive) | 28.8 µM (inactive) | 53.1 µM (inactive) | 31.6 µM (inactive) | 22.2 µM (inactive) | 18.7 | 46.2 µM (inactive) | – | 85.7 µM (inactive) | > 10 µM (inactive) | 15.7 µM (inactive) | 28.8 µM (inactive) | 23.4 µM (inactive) | 26.2 µM (inactive) | 18.3 µM (inactive) | 17.2 µM (inactive) | 28.8 µM (inactive) | 23.8 µM (inactive) |
